From ChEMBL document CHEMBL1151403, “Antimicrobial agents from higher plants. Dragon's blood resin” (1982) come the findings set out here.

Assay [1] has as its system Staphylococcus aureus. The experiment in a line: Antimicrobial activity against Staphylococcus aureus ATCC 13709 at 100 mcg/mL by agar dilution-streak method. It is filed as functional, organism-based.
Assay [2] has as its system Candida albicans. In words: Antimicrobial activity against Candida albicans ATCC 10231 at 100 mcg/mL by agar dilution-streak method. It is filed as functional, organism-based.
In assay [3] the test system is Salmonella enterica subsp. enterica serovar Gallinarum. In words: Antimicrobial activity against Salmonella gallinarum ATCC 9184 at 100 mcg/mL by agar dilution-streak method. It is filed as functional, organism-based.
In assay [4] the test system is Mycolicibacterium smegmatis. The experiment in a line: Antimicrobial activity against Mycobacterium smegmatis ATCC 607 at 100 mcg/mL by agar dilution-streak method. It is filed as functional, organism-based.
The next assay relates to Escherichia coli. In words: Antimicrobial activity against Escherichia coli ATCC 9637 at 100 mcg/mL by agar dilution-streak method. It is filed as functional, organism-based. A general note: In agar dilution the substance is mixed into plates at graded concentrations.
Assay [5] has as its system Klebsiella pneumoniae. In words: Antimicrobial activity against Klebsiella pneumoniae ATCC 10031 at 100 mcg/mL by agar dilution-streak method. It is filed as functional, organism-based.
Assay [6] relates to Candida albicans. The experiment in a line: Antimicrobial activity against Candida albicans ATCC 10231 by agar dilution-streak method. The assay is classed as functional.
Assay [7] relates to Mycolicibacterium smegmatis. In words: Antimicrobial activity against Mycobacterium smegmatis ATCC 607 by agar dilution-streak method. It is filed as functional.
Assay [8] has as its system Staphylococcus aureus. The experiment in a line: Antimicrobial activity against Staphylococcus aureus ATCC 13709 by agar dilution-streak method. The assay is classed as functional.
The test system of assay [9] is Klebsiella pneumoniae. The experiment in a line: Antimicrobial activity against Klebsiella pneumoniae ATCC 10031 by agar dilution-streak method. The assay is classed as functional.

Molecules are shown by their SMILES. The source made the active and inactive calls. No cut-off for these calls is given here.

Turning to `COc1cc(O)cc2c1CC[C@H](c1ccccc1)O2`, the result (in the assay with Staphylococcus aureus [1]; in the assay on Candida albicans [2]; in assay [3]; in assay [4]; with Escherichia coli; with Klebsiella pneumoniae [5]) was inactive.

For the molecule `COc1cc2oc3cc(=O)cc4oc(-c5ccccc5)cc(c2c2c1CC[C@@H](c1ccccc1)O2)c43`, the result (in the assay with Staphylococcus aureus [1]; in the assay on Candida albicans [2]; in assay [3]; in assay [4]; in the assay with Escherichia coli; in the assay on Klebsiella pneumoniae [5]) was inactive.

As to `COc1cc(=O)cc2oc(-c3ccccc3)ccc1-2`, the outcome (in the assay on Staphylococcus aureus [1]; with Candida albicans [2]; in assay [3]; in assay [4]; in the assay with Escherichia coli; in the assay with Klebsiella pneumoniae [5]) was inactive.

Regarding `COc1cc2oc3c(C)c(=O)cc4oc(-c5ccccc5)cc(c2c2c1CC[C@@H](c1ccccc1)O2)c43` [DRACORUBIN], the results for the Activity (in the assay with Candida albicans [6]; in [7]; in the assay on Staphylococcus aureus [8]) were 12.5 µg/mL, 25 µg/mL and 50 µg/mL, respectively. The result (in [3]; in the assay on Escherichia coli; in the assay on Klebsiella pneumoniae [5]) was inactive.

On to `COc1c2ccc(-c3ccccc3)oc-2cc(=O)c1C` [DRACORHODIN], for which the Activity with Candida albicans [6] came out at 25 µg/mL; in [7] it was 25 µg/mL; with Klebsiella pneumoniae [9] it was 100 µg/mL; in the assay with Staphylococcus aureus [8], 50 µg/mL. Further, the result (in assay [3]; with Escherichia coli) was inactive.
